The subject of data set [1] is BMDM. The data set can be described thus: NADPH level measurement in macrophages (BMDM). The format is cell-based, mouse. On the procedure: (§1) Bone marrow derived macrophages (hereinafter referred to as BMDM) were harvested, and according to the manufacturer's instructions, EnzyChrom NAD^+/NADHA assay Kit (Bioassay Systems, Hayward, CA, USA), Elite NADPH Assay Kit (eEnzyme, Gaithersburg, MD, USA) and Cell Titer-Glo® Luminescent Cell Viability assay (Promega, Madison, WI, USA) were used for analysis.
(§2) Since NAD^+ is an important cofactor in ATP production, ATP levels were measured during LPS treatment. […] However, the NADPH level in NAMPT-depleted macrophages was reduced by 21%.

In another data set the test system is BMDMs. Kind of data set: ROS measurement in LPS- and IFN-γ-activated BMDMs. The data set is classed as cell-based, mouse. To be noted: FIG. 13B. On the procedure:
BMDM or peritoneal macrophages were incubated with HBSS containing 5 μM CM-H2DCFDA (Invitrogen, Carlsbad, CA, USA) for 15 min at 37° C. To measure mitochondrial reactive oxygen species levels, cells were incubated with 5 μM MitoSOX (Invitrogen) for 15 minutes. FACS Canto II (BD) was used to monitor fluorescence levels.

Data set [2] deals with BMDM. The data set can be described thus: pHrodo green E. coli Bioparticles phagocytosis assay in BMDM. The format is cell-based, mouse. To be noted: for pHrodo intensity: BMDM of WT mice, FIG. 10B, 10D, 11B-11D. The method, then:
(§3) pHrodo™ green-conjugated E. coli Bioparticles™ were diluted in serum medium, incubated for 30 minutes and washed twice with PBS. Cells were incubated for the time indicated in the manufacturer's instructions and analyzed using a FACS Canto II flow cytometer (BD) or fluorescence microscope (DFC3000G; Leica, Wetzlar, Germany).
(§4) Pulse and chase phagocytosis assays were performed using pHrodo green to compare phagocytic activity between macrophages of WT and KO mice. In FIG. 11A, there was an increase in the intensity of the green fluorescence signal in the BMDM of WT mice, indicating the gradual maturation and fusion of phagosomes containing pHrodo green with lysosomes.

For another data set, the system named is RAW264.7 cells. Kind of data set: pHrodo green phagocytosis assay in RAW264.7 cells. The format is cell-based. The following applies: FIG. 10C, 10D, 11D. On the procedure: as §3, §4
In data set [3] the test system is BMDM. The data set can be described thus: M1/M2 macrophage polarization of BMDM (FACS, Western blot). The format is cell-based, mouse. On the procedure: The cell suspension of Example 4 was stained with various combinations of fluorochrome-conjugated antibodies on ice for 20 minutes under dark conditions, wherein the antibodies included anti-CD45 (30-F11), anti-CD1 lb (M1/70), anti-F4/80 (BM8), anti-Ly6G (1A8), anti-Ly6C (HK1.4), anti-MHC II (M5/114.15.2), anti-CD11c (N418), anti-CD206 (MMR) and anti-CD86 (GL-1) (all purchased from Biolegend, San Diego, CA, USA). Samples were obtained from the FACS Canto II Flow Cytometer (BD, Franklin Lakes, NJ, USA). Data were analyzed using FlowJo™ Software (BD).
Next, it was determined whether NAMPT is involved in the polarization of M1 and M2 macrophages.

A further data set relates to Raw 264.7 cells. Kind of data set: ROS measurement in Raw 264.7 cells upon LPS. The format is cell-based. To be noted: FIG. 10H.
Data set [4] relates to BMDM. The data set can be described thus: NAD+ level measurement in BMDM. The format is cell-based, mouse. The method, then: as §1, §2
In the next data set the test system is DSS-induced colitis. The data set can be described thus: DSS-induced colitis model in NAMPT KO mice with NMN administration. The format is in vivo, mouse. From the text: Nampt^f/f mice (C57BL6), which have two loxP sites adjacent to exon 5, were crossed with LyzM-Cre mice (C57BL6) to specifically knock out (KO) NAMPT in myeloid cell lineages including macrophages (Nampt^f/fLyzMCre^+/− mice; hereinafter referred to as KO mice). KO mice (heterozygous) were used as mice knocked out of bone marrow-specific NAMPT, and Nampt^f/f mice (wild type; hereinafter referred to as WT mice) were used as controls. The mice were stored at the Ajou University Laboratory Animal Research Center and preserved according to the guidelines of the Institution's Animal Care and Use Committee, which approved all animal procedures (2020-0013).
Age- and gender-matched WT mice and KO mice were administered with 2.5% DSS (MP Biomedicals, Santa Ana, CA, USA) for 7 days and then allowed to recover for 7 days. Colitis severity was determined daily through a scoring system based on the sum of scores for the following parameters: weight loss (0 points=no weight loss/weight gain, 1=5 to 10% weight loss, 2=11 to 15% weight loss, 3=16 to 20% weight loss, and 4=21% or more weight loss); stool consistency (score of 0=normal and well formed, 2=very soft and not formed, and 4=loose stool); and hemorrhagic stool score (0=normal colored stool, 2=red colored stool, 4=bloody stool). The disease activity index (DAI) ranged from 0 to 12.
Histology was scored blindly using a semi-quantitative scoring system based on the sum of scores for the following parameters: presence of ulceration: 0=none, 1=present but very slight, 2=minimal, 3=moderate, 4=widespread; presence of inflammation: 0=none, 1=minimal, 2=mild, 3=moderate, 4=severe; degree of inflammation: 0=none, 1=mucosal, 2=mucosal+submucosal, 3=mucosal+submucosal+muscle penetration, 4=full thickness invasion. Immunohistochemistry was performed using rabbit anti-NAMPT (Bethyl Laboratories, TX, USA), rabbit anti-Ki-67 (Abcam, Cambridge, UK), rabbit anti-cleaved caspase 3 (Cell Signaling Technology), mouse anti-CD326 (EpCAM)-APC (Invitrogen) and mouse anti-F4/80 (Abcam) antibodies.
Apoptosis was assessed by the TUNEL assay using the Apoptag plus in situ apoptosis fluorescein detection kit (Merck) according to the manufacturer's instructions. TUNEL positive signals were corrected to total nuclear signals for each field. The phagocytic cells were stained using the Apoptag ISOL dual fluorescence apoptosis detection kit (Millipore) according to the manufacturer's instructions. The stained samples were then incubated overnight with mouse anti-F4/80 antibodies. Fluorescence images were obtained by a confocal microscope (A1R HD25, Nikon, Tokyo, Japan) and a slide scanner (Axioscan, Zeiss, Germany).

The conditions of data set [5]: mouse, in vivo.
Description: It was further elucidated whether there was any clear cytotoxic effect by NMN injection in mice.
Where [6] appears, read: macrophages of KO mice, NMN with/without 6AN, FIG. 12I.
The mark [7] stands for this setting: NAMPT KO mice, 2.5% DSS, 500 mg/kg i.p.

SMILES strings stand for the structures.

We go through five compounds from patent US12318402B2, “Composition for treating or preventing colitis by NAMPT metabolic regulation” (AJOU UNIVERSITY INDUSTRY-ACADEMIC COOPERATION FOUNDATION, priority 2021, dated 2025).

For the compound `NC(=O)c1ccc(N)nc1` [6AN, 6-aminonicotinamide], the NADPH levels result in the data set on BMDM [1] (6AN during LPS challenge, FIG. 12J) was “further reduced NADPH levels”; in the data set on BMDM [1] (setting [6]) it was “blocked”; in the data set with BMDM [1] (macrophages of WT mice, FIG. 12H), “reduced NADPH levels in a dose-dependent manner”. Also, the ROS levels entry in the data set on BMDMs is “decrease in ROS levels”.

On to `CO/C1=C\C(C)=C\[C@@H](C)[C@@H](O)[C@@H](C)C/C(C)=C/C=C/[C@H](OC)[C@@H]([C@@H](C)[C@@H](O)[C@H](C)[C@@]2(O)C[C@@H](O)[C@H](C)[C@@H](C(C)C)O2)OC1=O` [Baf A1, bafilomycin A1], for which the pHrodo intensity result with BMDM [2] and in the data set with RAW264.7 cells was “reduced the fluorescence intensity” each time.

For `O=C(/C=C/c1cccnc1)NCCCCC1CCN(C(=O)c2ccccc2)CC1` [FK866], in the data set on BMDM [3] (BMDM treated with LPS/IFN-γ or IL-4, FACS, FIG. 7A, 7B), the “polarization of M1 and M2 macrophages” value was “did not result in polarization of M1 and M2 macrophages”. The “expression of M1 and M2 macrophage-specific markers” value with BMDM [3] (Western blot, FIG. 7D) is “did not affect”. Besides, the results for the pHrodo intensity entry in the data set with BMDM [2] and in the data set on RAW264.7 cells were “decreased” and “reduced pHrodo intensity”, respectively. In addition, the ROS production entry in the data set with Raw 264.7 cells (response to LPS) was “partially inhibited”. Besides, the “NAD+ levels” value in the data set with BMDM [4] (FIG. 12B) is listed as “significantly reduced”; in the data set on BMDM [4] (LPS treatment), “further decrease”. Besides, the NADPH levels entry in the data set with BMDM [1] (in LPS treatment, FIG. 12G) is on record as “further decrease in NADPH levels”.

Take `NC(=O)c1ccc[n+]([C@@H]2O[C@H](COP(=O)([O-])OP(=O)(O)OC[C@H]3O[C@@H](n4cnc5c(N)ncnc54)[C@H](O)[C@@H]3O)[C@@H](O)[C@H]2O)c1` [NAD^+, nicotinamide adenine dinucleotide]: the “inhibitory effect of FK866 on ROS production” value in the data set with Raw 264.7 cells (LPS, FK866, NAD+ co-treatment) was “recovered”.

Regarding `NC(=O)c1ccc[n+]([C@@H]2O[C@H](COP(=O)([O-])O)[C@@H](O)[C@H]2O)c1` [NMN, nicotinamide mononucleotide], in the data set with BMDM [2] (BMDM of KO mice), the pHrodo fluorescence intensity entry is recorded as “restored fluorescence intensity”. Further, in the data set with BMDM [4] (after NAMPT knock out or FK866 treatment, FIG. 12B), the “NAD+ levels” value was “restored the phenotype”. Also, in the data set with BMDM [1] (in LPS treatment, FIG. 12G), the NADPH levels entry is given as “increased NADPH levels”. In the data set with BMDM [1] (setting [6]), the NADPH levels result was “restored NADPH levels”. Also, the NADPH levels entry with BMDM [1] (macrophages of KO mice, FIG. 12D, 12E) was “increased NADPH levels”. In the data set with DSS-induced colitis (NAMPT KO mice, 2.5% DSS, 500 mg/kg NMN i.p. 3 times a week, 8 out of 12), this compound displayed a survival of 67%. For the same compound, in the data set with DSS-induced colitis (setting [7]), the DAI entry is “restored” and the weight loss entry was “restored”. In addition, in the data set with DSS-induced colitis (colon tissue, FIG. 14F), the “F4/80+ macrophage population” value was “decrease”, the “Ki-67+ cells” value is “increased”, the “positive signals of TUNEL” value was “decreased” and the “positive signals of cleaved caspase 3” value is on record as “decreased”. Also, in data set [5], the “abnormalities in the colon, liver and spleen at the microscopic level” value was “no abnormalities”; the “serum ALT level” value was “similar”; the “serum AST level” value is on record as “similar”.
